Results as given in article PMC7645381, “Development and application of a high-throughput screening assay for identification of small molecule inhibitors of the P. falciparum reticulocyte binding-like homologue 5 protein” (International Journal for Parasitology: Drugs and Drug …, 2020).

Key:
DCLK1 = target: T1, DCLK1 (Homo sapiens, UniProt O15075); assay: Differential scanning fluorimetry of control protein DCLK1; type: binding; details: DSF
T1 construct: made in house
T1 sequence (O15075 372-649 limits assumed): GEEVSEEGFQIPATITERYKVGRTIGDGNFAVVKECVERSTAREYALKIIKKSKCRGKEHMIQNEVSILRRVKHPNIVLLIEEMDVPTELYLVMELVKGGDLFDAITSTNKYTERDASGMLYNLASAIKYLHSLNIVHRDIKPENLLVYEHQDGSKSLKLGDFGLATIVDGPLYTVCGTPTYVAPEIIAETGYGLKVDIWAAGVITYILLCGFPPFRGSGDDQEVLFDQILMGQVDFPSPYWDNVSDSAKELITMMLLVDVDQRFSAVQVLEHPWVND
Experimental: Doublecortin-like kinase domain 1 (DCLK1) used as a control protein in differential scanning fluorimetry experiments and was recombinantly expressed and purified according to the previously described protocol ([Patel et al., 2016]).
Differential scanning fluorimetry assays were performed as described previously ([Murphy et al., 2013], [2014a], [2014b]) using a Rotor-Gene Q PCR. Briefly, purified PfRh5 was diluted in 20 mM Tris pH 8.0, 150 mM NaCl to achieve 10 μg per reaction and assayed with the appropriate concentration of inhibitor in a total reaction volume of 25 μL. SYPRO Orange (Molecular Probes, CA) was used as a fluorescence probe and detected at 530 nm. Compounds were titrated at final concentrations ranging from 5 μM to 80 μM final. Data was transformed and plotted using GraphPad Prism. Shown data are representative means of two technical experiments.

[1] = target: P. falciparum Rh5 (Rh5 – basigin interaction) (Plasmodium falciparum, UniProt Q8IFM5); assay: biochemical; type: binding
P. falciparum Rh5 (Rh5 – basigin interaction), sequence (Q8IFM5 24-526): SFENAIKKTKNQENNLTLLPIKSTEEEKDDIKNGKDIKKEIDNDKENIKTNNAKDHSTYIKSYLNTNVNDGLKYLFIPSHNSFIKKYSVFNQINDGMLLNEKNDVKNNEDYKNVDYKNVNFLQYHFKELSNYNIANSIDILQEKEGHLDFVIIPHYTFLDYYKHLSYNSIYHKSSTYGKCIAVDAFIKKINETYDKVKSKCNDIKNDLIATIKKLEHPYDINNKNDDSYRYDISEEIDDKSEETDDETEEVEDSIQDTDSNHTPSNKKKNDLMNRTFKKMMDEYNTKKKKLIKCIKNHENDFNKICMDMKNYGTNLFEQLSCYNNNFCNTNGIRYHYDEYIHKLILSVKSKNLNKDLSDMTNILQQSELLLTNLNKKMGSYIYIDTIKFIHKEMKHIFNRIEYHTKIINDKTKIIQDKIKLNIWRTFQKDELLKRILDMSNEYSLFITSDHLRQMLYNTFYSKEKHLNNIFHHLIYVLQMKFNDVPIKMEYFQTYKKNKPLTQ

For O=C(Nc1cccc2c(=O)cc(-c3nnn[nH]3)oc12)c1ccc(OCCCCc2ccccc2)cc1 [pranlukast], which “effect on Tm of DCLK1” value (DCLK1; concentration up to 20 μM) is on record?
The value was “did not have a significant impact on the Tm of DCLK1”.

What about the “effect on Tm of DCLK1” value (DCLK1; high concentration (>40 μM)) of the same compound?
The value was “markedly lower Tm”.

And the IC50 [1]?
The IC50 was 12 µM.
